# Measured values taken from patent publication US20030109546A1, “Treatment of psychotic disorders comprising co-therapy with anticonvulsant derivatives and atypical antipsychotics” (priority 2001, published 2003).
# Assays:
# schizophrenia [1] = assay: Example 3 case study: augmentation of clozapine treatment; format: in vivo, human
# Description: The patient was a morbidly obese person, who was first hospitalized in 1966 for psychotic symptoms, leading to a psychiatric diagnosis of schizophrenia. Their primary symptoms consisted of a set of strange and elaborate ideas about transmitting their thoughts to others, thoughts that they had invented “invisible steel” which was being used by the CIA and aliens, and a high degree of suspiciousness about the discriminatory intent of their clergyman and the local police. They denied any overt hallucinations, although they acknowledged “weird noises” associated with aliens attempting to contact them. At initial hospitalization, the patient was also profoundly confused and disorganized in their thought processes. Over the next two decades they were hospitalized four more times with essentially this same clinical picture, eventually being admitted in 1989 to a state hospital for long-term treatment where they remain to this day.
# During their five hospitalizations the patient was treated with a variety of anti-psychotic medications, often in various combinations and dosages. In 1994 they were characterized as being treatment refractory according to the Kane criteria and enrolled in an NIMH sponsored study of three different doses of clozapine. As a participant in this study the patient received 100, 300, 600 mg, each for a 3-month period.
# The patient was nonetheless continued on a 100 mg dose of clozapine, with the intent of using a variety of different augmentation strategies to possibly improve their clinical state. […] Throughout this period, the patient's strange and bizarre ideas persisted. They remained emotionally withdrawn, and required regular PRN medication to reduce their agitation on the ward.
# Toward the end of the year 2000, the patient was treated with a drug regimen of 100 mg of clozapine, 2 mg of risperidone, and 750 mg of valproic acid. At this time, the patient agreed to augment their treatment with topiramate. The valproic acid was gradually withdrawn, and on Dec. 5, 2000 the patient was started on 50 mg of topiramate. The topiramate was increased at a rate of 50 mg per week up to a daily dosage of 200 mg where they remained for over four months. Within the first 2-3 weeks of topiramate treatment several important clinical changes were observed. […] Rather than being very certain about their ability to transmit thought to others they now are not sure that this is possible. They were also no longer certain that they actually invented “invisible steel”, but instead mostly only believed that they once thought it, although occasionally the delusional belief breaks though into their thinking. […] Second, as a result of treatment with topiramate the patient's agitation was decreased and PRN medication for agitation was no longer required.
# schizoaffective disorder = assay: Example 1 case study: topiramate added to olanzapine-containing regimen; format: in vivo, human
# Description: The patient was a single person, diagnosed with schizoaffective disorder, who presented with a variety of problems including disorganized behavior, suspiciousness, ideas of reference, stereotyped and obsessional thinking, lack of motivation, poor hygiene, poverty of speech, oppositional behavior and intermittent suicide attempts. The patient spent virtually the entire day in bed and was awake through the night. […] Despite continuous psychiatric and pharmacological treatment, the patient remained substantially disabled by withdrawal, apathy, poverty of speech, poor hygiene, anhedonia and suspiciousness. […] In addition, the patient was seen weekly in individual psychotherapy. There were no additional active medical problems. The patient was started on topiramate with dosages increased over a period of six weeks to 400 mg/day. […] In addition, the patient's residual positive symptoms, including primary suspiciousness and ideas of reference, were improved and the patient became less fearful of interacting with other. Patient's social functioning was improved, with the patient able to hold part-time employment. […] The patient maintained their part-time employment and engaged in productive social activity several times a week. […] (Lorazepam was removed with sustained improvement.)
# [2] = test system: schizophrenia, undifferentiated type; assay: Example 4 case study: topiramate added to haloperidol and risperidone; format: in vivo, human
# Description: The patient was a person, who was first hospitalized in 1983 on an involuntary basis-due to their inability to care for themself. Upon admission, they were described as paranoid, suspicious, agitated, and delusional, and was given the diagnosis of schizophrenia, undifferentiated type. They expressed persecutory delusions saying that the Mafia was going to hurt them. They heard voices telling them that someone was going to rape their parent. After one year of hospitalization, they were discharged into the community, where they soon became unstable resulting in two suicide attempts by hanging and two more short-term hospitalizations. In 1988 the patient was admitted into a state hospital for long-term treatment where they remain to this day. Over the past decade or more, their clinical picture had remained unchanged. They had been treated with numerous anti-psychotic medications, including the newer a typical medicines with little or no benefit. Their high level of agitation and persecutory delusions often propelled them into confrontations with staff and other patients, and they were regularly treated with PRN medications or placed into seclusion for their behavior. […] The topiramate dosage was titrated at a rate of 50 mg per week up to a daily dosage of 150 mg, at which dose the patient remained for a period of 4 months. Within the first month of treatment with topiramate several important clinical changes began to emerge. […] Within 1-2 weeks, the patient was no longer in seclusion and the use of PRN medication for agitation became very rare. Second, the patient's expressions persecutory delusions or suspiciousness decreased, and they were able to join into group activities on the unit.
# [3] = test system: simple and complex partial seizures and secondarily generalized seizures; settings: adjunctive therapy or monotherapy; cited from earlier work
# seizures = settings: several rodent models of epilepsy; cited from earlier work
# schizophrenia [4] = assay: Example 2 open label pilot study on topiramate as adjunctive therapy in schizophrenia; format: in vivo, human
# kindled epilepsy = settings: animal model of kindled epilepsy; cited from earlier work
# schizophrenia [5] = assay: Example 2 open label pilot study on topiramate as adjunctive therapy in schizophrenia; format: in vivo, human; settings: Patient 1
# Protocol: Results from Open Label Pilot Study on Topiramate as Adjunctive Therapy in the Treatment of Schizophrenia
# The patient was a person who met DSM-IV diagnostic criteria for chronic undifferentiated schizophrenia. […] The patient had been maintained on a stable regimen of 20 mg olanzapine prior to initiation of the study. […] Although the patient lived in a group home with other residents, they preferred to spend most of their free time alone, watching television or staying in their room, and went to bed between 7 and 8 o'clock each night. The patient had limited social interactions in the partial hospitalization program, initiating contact with only a few friends. The patient was intrusive during groups and was unable to empathize with others within the group.
# The patient was begun on topiramate at an initial dose of 25 mg/day, titrating to an optimal dosage level of 175 mg/day, which was given in two divided doses during an eight week maintenance medication phase of a clinical trial.
# They also became less stereotyped in their speech, with very infrequent references to their previous recurrent theme of golf. After 12 weeks of adjunctive therapy with topiramate, the patient also appeared more realistic about their golfing skills, stating than they were an “average” golfer, as opposed to their previous assertions about winning several club tournaments.
# The patient also resumed going to bed around 6:30 or 7:00 pm each night.
# [6] = topiramate up to 400 mg/day added to olanzapine-containing regimen
# [7] = period of treatment that included topiramate
# [8] = topiramate 50 to 150 mg daily added to haloperidol and risperidone
# [9] = topiramate 175 mg/day added to 20 mg olanzapine
# [10] = topiramate 25 to 175 mg/day added to 20 mg olanzapine
# [11] = topiramate 50 to 200 mg daily added to 100 mg clozapine, 2 mg risperidone
smiles,measurement,setting,value
"CCCC(CCC)C(=O)O [Depakote, divalproex sodium]",benefit when added to clozapine treatment,"schizophrenia [1]; up to 5000 mg added to clozapine, 1999",little benefit
"CN1CCN(C2=Nc3cc(Cl)ccc3Nc3ccccc32)CC1 [clozapine, 8-chloro-11-(4-methyl-1-piperazinyl)-5H-dibenzo[b,e][1,4]diazepine]",adverse event,schizophrenia [1]; 900 mg of clozapine,led to a seizure
same,response to treatment,"schizophrenia [1]; clozapine 100, 300, 600 mg, each for 3 months (NIMH study)",did not show any meaningful response
"Cc1nc2n(c(=O)c1CCN1CCC(c3noc4cc(F)ccc34)CC1)CCCC2 [risperidone, 3-[2-[4-(6-fluoro-1,2-benzisoxazol-3-yl)piperidino]ethyl]-2-methyl-6,7,8,9-tetrahydro-4H-pyrido-[1,2-a]pyrimidin-4-one]",adverse event when added to clozapine treatment,schizophrenia [1]; standard dose added to 100 mg clozapine,severe tremors
same,effect when added to clozapine treatment,schizophrenia [1]; standard doses added to 100 mg clozapine,little effect
same,benefit of clozapine augmentation with low dose risperidone,schizophrenia [1]; study in 2000,lack of treatment benefit
"CC1(C)O[C@@H]2[C@@H](CO[C@@]3(COS(N)(=O)=O)OC(C)(C)O[C@@H]23)O1 [topiramate, 2,3:4,5-bis-O-(1-methylethylidene)-β-D-fructopyranose sulfamate]",maintenance of improvement,"schizoaffective disorder; after 5 months, topiramate decreased to 300 mg/day",improvements maintained
same,maintenance of improvement,"schizoaffective disorder; after 10 months, 300 mg topiramate, 7.5 mg olanzapine, 400 mg fluvoxamine, 1 mg lorazepam daily",improvement was still sustained
same,maintenance of improvement,"schizoaffective disorder; after more than 2 years, 300 mg topiramate, 7.5 mg olanzapine, 400 mg fluvoxamine daily",remained improved
same,"negative symptoms (eye contact, attention, concentration, poverty of speech, grooming, hygiene, withdrawal)","schizoaffective disorder; topiramate increased over six weeks to 400 mg/day, added to fluvoxamine, Depakote, lorazepam, olanzapine 10 mg, over 8 weeks",significant improvement
same,"residual positive symptoms (suspiciousness, ideas of reference)",schizoaffective disorder; [6],improved
same,social functioning,schizoaffective disorder; [6],improved
same,"intensity of positive symptoms (auditory hallucinations, delusions of persecution)",[2]; [7],reduced in occurrence and severity
same,social withdrawal,[2]; [7],less socially withdrawn
same,expressions of persecutory delusions or suspiciousness,[2]; [8],decreased
same,negative symptoms,[2]; [8],fewer negative symptoms
same,level of agitation,"[2]; topiramate 50 to 150 mg daily added to haloperidol and risperidone, within first month",reduced dramatically
same,efficacy in treating simple and complex partial seizures and secondarily generalized seizures,[3],effective
same,seizure block,seizures,effectively block seizures
same,response with regards to negative symptoms,"schizophrenia [4]; Patients 2 & 3, adjunctive topiramate",did not respond significantly
same,positive symptoms,"schizophrenia [4]; Patients 2 & 3, over the course of the trial",decreases in positive symptoms
same,negative symptoms,"schizophrenia [4]; one of Patients 2 & 3, fluctuated during drug maintenance period",limited decrease
same,side effect potentially attributable to topiramate,"schizophrenia [4]; second of Patients 2 & 3, topiramate 100 mg/day",difficulties with verbal fluency and word finding
same,negative symptoms,"schizophrenia [4]; second of Patients 2 & 3, topiramate 100 mg/day lowered to 75 mg/day, dropped from study",significant decrease
same,seizure block,kindled epilepsy,effectively block seizures
same,change in the Positive or General Scales of the PANSS,schizophrenia [5]; [9],"did not show any consistent, significant change"
same,decrease in the Negative Scale score (PANSS) from baseline,schizophrenia [5]; [9],7 points
same,tolerability,schizophrenia [5]; [10],well tolerated
same,vital signs and laboratory values,schizophrenia [5]; [10],remained within the normal range
same,Negative Scale score after discontinuation of topiramate,schizophrenia [5]; upon completion of the study protocol,increase in the Negative Scale score
same,clinical state (opinion of the treatment team),schizophrenia [1]; addition of topiramate,clear and important degree of improvement
same,level of suspiciousness,schizophrenia [1]; [11],decreased
same,thought organisation / conversation,schizophrenia [1]; [11],able to engage in a logical conversation
same,agitation,"schizophrenia [1]; topiramate 50 to 200 mg daily added to 100 mg clozapine, 2 mg risperidone, PRN medication no longer required",decreased
same,level of preoccupation with delusional thoughts,"schizophrenia [1]; topiramate 50 to 200 mg daily added to 100 mg clozapine, 2 mg risperidone, within first 2-3 weeks",obviously reduced
